In PMC10644722, “Discovery of inhibitors of protein tyrosine phosphatase 1B contained in a natural products library from Mexican medicinal plants and fungi using a combination of enzymatic and in silico methods**” (Frontiers in Pharmacology, 2023):
“And” between values parts separate entries of the source, which are not always exact repeats. Equal entries are not always repeated. Where two headings read alike, the source gives them in different places.

Biological target: T1, hPTP1B1-400 (Homo sapiens, UniProt P18031)
T1 sequence (P18031 1-400): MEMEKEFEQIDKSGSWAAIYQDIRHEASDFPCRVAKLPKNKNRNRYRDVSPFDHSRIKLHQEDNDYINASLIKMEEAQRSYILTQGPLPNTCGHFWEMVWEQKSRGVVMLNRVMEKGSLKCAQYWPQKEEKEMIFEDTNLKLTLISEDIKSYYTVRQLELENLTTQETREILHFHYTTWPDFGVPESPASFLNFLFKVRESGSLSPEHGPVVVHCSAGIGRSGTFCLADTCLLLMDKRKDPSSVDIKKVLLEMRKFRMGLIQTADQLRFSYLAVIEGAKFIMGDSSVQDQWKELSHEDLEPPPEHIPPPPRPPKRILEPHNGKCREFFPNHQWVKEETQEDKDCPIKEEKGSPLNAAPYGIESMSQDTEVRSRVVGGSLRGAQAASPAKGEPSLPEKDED
Experiment: PTP1B inhibition assay (spectrophotometric, 4-nitrophenyl phosphate)
Format: biochemical
Details: for ΔA, activity difference between UA and the compound: absolute pIC50 difference against ursolic acid
Method: The inhibitory activity was determined as a percentage compared to the blank (Buffer) according to the following equation: %InhibitionPTP1B=1−A405s/A405b×100%, (1) where A405(s) is the ΔA of the sample (At20 − At0), A405(b) is the ΔA of the blank obtained in the same manner as that of the sample. Using the data obtained, the enzyme inhibition curve was plotted, for which the average percentage of inhibition was plotted as a function of the inhibitor concentration.

[1] = DoseResp model fit, Origin 8.0, axis C (mM), read-out: LOGx0 of the IC50 curve
[2] = enzyme 66 nM, 4-NP 0.125 mM, Tris-HCl pH 6.8, 20 min, room temperature, read-out: IC50
[3] = negative log of the IC50 in Molar, read-out: pIC50 (converted)
[4] = Hill1 model fit, Origin 8.0, axis C (mM), read-out: k of the IC50 curve
[5] = negative log of the IC50 in Molar

COC(=O)/C(C)=C\CC[C@H](C)[C@@H]1CC[C@]2(C)C3=CCC4C(C)(C)C(=O)CC[C@]4(C)C3CC[C@@]12C (stereo partly drawn) [Compound 86, Methyl ester of masticadienonic acid]
IC50 [1]: 0.325 ± 0.00894 mM
ΔA, activity difference between UA and the compound: 1.2
IC50 [2]: 0.3245 ± 1e-06 mM
IC50 [3]: 0.324 mM

COc1c(O)cc2cc(OC)c3cc(O)ccc3c2c1OC [Compound 41, Gymnopusin]
IC50 [1]: 0.431 ± 0.0111 mM
ΔA, activity difference between UA and the compound: 1.3
IC50 [2]: 0.4314 ± 1e-05 mM
IC50 [3]: 0.427 mM

C=C(C)[C@H]1COc2c(C)cc3oc4c(C[C@H](O)C(C)(C)O)ccc(O)c4c(=O)c3c2[C@@H]1O [Compound 7, Tajixanthone hydrate]
IC50 [1]: 0.0832 ± 0.00124 mM
ΔA, activity difference between UA and the compound: 0.6
IC50 [2]: 0.0832 ± 1e-06 mM
IC50 [3]: 0.0832 mM

COc1c2c(cc3oc(C)cc(=O)c13)OC(C)(C)[C@H](O)C2 [Compound 94, (+)-5-Methoxyhamaudol]
IC50 [4]: 0.298 ± 0.146 mM
ΔA, activity difference between UA and the compound: 1.1
IC50 [2]: 0.2985 ± 0.00015 mM
pIC50 [5]: 3.53

CC(C)(O)C(O)C1CC(C2CCC3(C)C4=CCC5C(C)(C)C(=O)CCC5(C)C4CCC23C)C(O)O1 (stereo not drawn) [Compound 10, Melianodiol]
ΔA, activity difference between UA and the compound: 0.6
IC50 [2]: 0.0921 ± 4e-05 mM
IC50 [3]: 0.0912 mM

CC(=O)OC[C@H]1O[C@@H](Oc2cc(O)cc3oc(=O)cc(-c4ccc(O)c(O)c4)c23)[C@H](O)[C@@H](O)[C@H]1O [Compound 67, 6''-O-acetyl-5-O-β-D-galactopyranosyl-7,3',4'-trihydroxy-4-phenylcoumarin]
IC50 [1]: 0.254 ± 0.203 mM
ΔA, activity difference between UA and the compound: 1.1
IC50 [2]: 0.2543 ± 0.0002 mM
pIC50 [5]: 3.59

CC(=O)OC(C)(C)/C=C/C(=O)[C@](C)(O)[C@H]1[C@H](O)C[C@@]2(C)[C@@H]3CC=C4[C@@H](C[C@H](O[C@@H]5O[C@H](CO)[C@@H](O)[C@H](O)[C@H]5O)C(=O)C4(C)C)[C@]3(C)C(=O)C[C@]12C [Compound 15, Arvenin I]
IC50 [4]: 0.564 ± 0.041 mM
ΔA, activity difference between UA and the compound: 1.4
IC50 [2]: 0.5643 ± 4.1e-05 mM
pIC50 [5]: 3.25

COc1cc(=O)oc2c(O[C@@H]3O[C@H](CO)[C@@H](O)[C@H](O)[C@H]3O)ccc(C)c12 [Compound 63, 8-β-D-glucopyranosyloxy-4-methoxy-5-methyl-coumarin]
IC50 [1]: 0.166 ± 0.0177 mM
ΔA, activity difference between UA and the compound: 0.9
IC50 [2]: 0.1657 ± 2e-05 mM
pIC50 [5]: 3.78

C=C(C)C(C)(C)CCC(C)C1CCC2(C)C3CCC4C(C)(CCC(O)C4(C)C)C3=CCC12C (stereo not drawn) [Compound 64, 5α-lanosta-24,24-dimethyl-9(11),25-dien-3β-ol]
IC50 [1]: 0.399 ± 0.025 mM
ΔA, activity difference between UA and the compound: 1.3
IC50 [2]: 0.3985 ± 3e-05 mM
IC50 [3]: 0.398 mM

COc1cc(-c2cc(=O)c3c(O)c(O)c(OC)cc3o2)ccc1O [Compound 5, 4',5,6-Trihydroxy-3',7-dimethoxyflavone]
IC50 [1]: 0.0573 ± 0.0213 mM
ΔA, activity difference between UA and the compound: 0.42 and 0.4
IC50 [2]: 0.0573 ± 2e-05 mM
IC50 [3]: 0.0575 mM

5,7-Diacetylchrysin [Compound 54]
IC50 [4]: 0.362 ± 0.0378 mM
ΔA, activity difference between UA and the compound: 1.2
IC50 [2]: 0.3618 ± 4e-05 mM
pIC50 [5]: 3.44

Calein A [Compound 46]
IC50 [1]: 0.234 ± 0.0196 mM
ΔA, activity difference between UA and the compound: 1.0
IC50 [2]: 0.2345 ± 2e-05 mM
pIC50 [5]: 3.63

O=c1c(O[C@@H]2O[C@H](CO)[C@H](O)[C@H](O)[C@H]2O)c(-c2ccc(O)cc2)oc2cc(O)cc(O)c12 [Compound 51, Trifolin]
IC50 [1]: 0.859 ± 0.0259 mM
ΔA, activity difference between UA and the compound: 1.6
IC50 [2]: 0.859 ± 0.0003 mM
IC50 [3]: 0.851 mM

C=CC(C)(C)C12CC3(O)c4nc5ccccc5c(=O)n4C(C(C)C)C(=O)N3C1N(C(C)=O)c1ccccc12 (stereo not drawn) [Compound 96, Albolutein A]
ΔA, activity difference between UA and the compound: -0.1
IC50 [2]: 0.0191 ± 0.0014 mM
IC50 [3]: 0.0191 mM

C[C@H]1C(=O)CC[C@@H]2[C@]1(C)CC[C@H]1[C@@]2(C)CC[C@@]2(C)[C@@H]3CC(C)(C)CC[C@]3(C)CC[C@]12C [Compound 56, Friedelin]
IC50 [1]: 0.888 ± 0.0408 mM
ΔA, activity difference between UA and the compound: 1.6 and 1.61
IC50 [2]: 0.8878 ± 4e-05 mM
IC50 [3]: 0.891 mM

CC(=CCCC(C)C1CCC2(C)C3=C(CCC12C)C1(C)CCC(=O)C(C)(C)C1CC3)C(=O)O (stereo not drawn) [Compound 89, Isomasticadienonic acid]
IC50 [1]: 0.419 ± 0.00938 mM
ΔA, activity difference between UA and the compound: 1.3 and 1.28
IC50 [2]: 0.419 ± 1e-05 mM
IC50 [3]: 0.417 mM

COc1cc(O)cc(CCc2cccc(O)c2)c1 [Compound 34, Batatasin III]
IC50 [1]: 0.247 ± 0.0675 mM
ΔA, activity difference between UA and the compound: 1.1
IC50 [2]: 0.2474 ± 7e-05 mM
IC50 [3]: 0.245 mM

C=CC(C)(C)[C@@]12Nc3ccccc3[C@]1(O)C[C@@]1(O)c3nc4ccccc4c(=O)n3[C@@H](C(C)C)C(=O)N12 [Compound 97, Albolutein B]
ΔA, activity difference between UA and the compound: 0.1
IC50 [2]: 0.0258 ± 0.0258 mM
pIC50 [5]: 4.59

COc1cc(OC2OC(CO)C(O)C(O)C2O)c2c(-c3ccc(O)c(O)c3)cc(=O)oc2c1 [Compound 2, 5-O-(β-D-Glucopyranosyl)-7-methoxy-3'-4'-dihydroxy-4-phenylcoumarin]
%I (0.02 mM compound): 42.48 ± 1.16%
%I (1 mM compound): 95.13 ± 0.54%
IC50 (IC50 (μM), enzyme 66 nM, 4-NP 0.125 mM, Tris-HCl pH 6.8, 20 min, room temperature): 0.0404 ± 2e-05 mM
IC50 (LOGx0 of the IC50 curve, DoseResp model fit, Origin 8.0, axis C (mM)): 0.0404 ± 0.0232 mM
ΔA, activity difference between UA and the compound: 0.3
IC50 (pIC50, negative log of the IC50 in Molar): 0.0407 mM

COc1cc(O[C@@H]2O[C@H](CO[C@@H]3OCC(O)(CO)[C@H]3O)[C@@H](O)[C@H](O)[C@H]2O)c2c(-c3ccc(O)c(O)c3)cc(=O)oc2c1 (stereo partly drawn) [Compound 73, 5-O-β-D-Apiofuranosyl-(1→6)-β-D-glucopyranosyl-7-metoxi-3'-4'-dihydroxy-4-phenylcoumarin]
IC50 [1]: 0.359 ± 0.0682 mM
ΔA, activity difference between UA and the compound: 1.2
IC50 [2]: 0.3586 ± 7e-05 mM
pIC50 [5]: 3.45

CCC(C=CC(C)C1CCC2C3=CCC4CC(O)CCC4(C)C3CCC21C)C(C)C (stereo not drawn) [Compound 84, α-Spinasterol]
IC50 [1]: 0.989 ± 0.137 mM
ΔA, activity difference between UA and the compound: 1.7 and 1.66
IC50 [2]: 0.9891 ± 0.00014 mM
IC50 [3]: 1 mM

CN1C(=O)c2ccccc2-n2c(nc3ccccc3c2=O)[C@@H]1Cc1ccccc1 [Compound 40, Benzomalvin A]
IC50 [1]: 0.424 ± 0.00536 mM
ΔA, activity difference between UA and the compound: 1.3
IC50 [2]: 0.4242 ± 5e-06 mM
IC50 [3]: 0.427 mM

CC(C)(O)CCC(=O)[C@](C)(O)[C@H]1[C@H](O)C[C@@]2(C)[C@@H]3CC=C4[C@@H](C[C@H](O)[C@@H](O[C@@H]5O[C@H](CO)[C@@H](O)[C@H](O)[C@H]5O)C4(C)C)[C@]3(C)C(=O)C[C@]12C [Compound 14, 3-O-β-D-Glucopyranosyl-23,24-dihydrocucurbitacin F]
IC50 [1]: 0.358 ± 0.0127 mM
ΔA, activity difference between UA and the compound: 1.2
IC50 [2]: 0.3583 ± 1.2e-05 mM
pIC50 [5]: 3.45

O=C(OCC1OC(Oc2c(-c3ccc(O)c(O)c3)oc3cc(O)cc(O)c3c2=O)C(O)C(O)C1O)c1ccccc1 [Compound 8, Quercetin-3-O-(6''-benzoyl)-β-D-galactoside]
IC50 [1]: 0.0888 ± 0.0504 mM
ΔA, activity difference between UA and the compound: 0.6
IC50 [2]: 0.0888 ± 5e-05 mM
IC50 [3]: 0.0891 mM

CC1(C)C=Cc2cc3ccc(=O)oc3cc2O1 [Compound 93, Xanthyletin]
IC50 [4]: 0.865 ± 0.148 mM
ΔA, activity difference between UA and the compound: 1.6
IC50 [2]: 0.8646 ± 0.00015 mM
IC50 [3]: 0.871 mM
